Data taken from patent publication EP3441076A1, “PHARMACEUTICAL PRODUCT FOR TREATING TUMOR AND COMBINED IMMUNE DEFECT, AND PREPARATION AND APPLICATION THEREOF” (Beijing Lu De Kai Qi Co., Ltd., priority 2016, dated 2017).
Read-outs that look alike come from different tables or passages of the source. Marks after values point to notes of the source that are not given here.

Columns and labels:
[1] = system: polychromatic erythrocytes in bone marrow of mice; conditions: for Number of micronucleus (in Ge) / Micronucleus rate: 50 mg/kg•bw, positive control; for Number of micronucleus (in Ge): 5000 cells examined; for Micronucleus rate: P<0.01 vs negative control
Procedure: The walnut extract, the wormwood extract, and the clove bud extract were respectively subjected to a water bath at 70°C for 1 hour, soaked for 12 hours, and concentrated for testing.
(§1) The healthy Kunming mice provided by the Experimental Animal Center of the National Institute for the Control of Pharmaceutical and Biological Products were selected.
The test was carried out via oral gavage and the administration was performed twice at intervals of 24 hrs. 50 mice weighing 25-30 g were randomly divided into 5 groups according to body weight, 10 in each group, half male and half female. […] The doses of the anti-tumor pharmaceutical product for combined immunization according to the present invention were 1.25, 2.50, and 5.00 g/kg•bw, respectively, and the desired concentrations were adjusted with distilled water. The animals were sacrificed by cervical dislocation six hours after the last administration of the anti-tumor pharmaceutical product for combined immunization according to the present invention. The bone marrow of sternum was acquired and diluted with calf serum, smeared, fixed with methanol, and stained with Giemsa. Under the light microscope, 1000 polychromatic erythrocytes (PRC) were counted per animal, and the incidence of micronucleus was calculated by the permillage of micronucleus-containing PRC and statistically processed.

[2] = system: sperm
Procedure: Test materials: The walnut extract, the wormwood extract, and the clove bud extract were all prepared in the same manner as in Example 1. The walnut extract, the wormwood extract, and the clove bud extract were respectively subjected to a water bath at 70°C for 1 hour, soaked for 12 hours, and concentrated for testing.
as §1
Fifty sexually mature male mice weighing 30-35 g were randomly divided into 5 groups. […] The doses of the anti-tumor pharmaceutical product for combined immunization according to the present invention were 1.25, 2.50, and 5.00 g/kg•bw, and the desired concentration were adjusted with distilled water. The mice were administered via oral gavage once a day for 5 days, and the animals were sacrificed 30 days after the last gavage. The epididymis was acquired and sectioned and stained with eosin. Five animals were counted in each group and 1000 intact sperm were counted per animal. The incidence of sperm abnormality (in percentage) was calculated and statistically processed.

[3] = all dose groups, statistical comparison with distilled water group

Question: How did the “Number of micronucleus (in Ge)” value ([1]; Female mice) turn out when `O=P1(N(CCCl)CCCl)NCCCO1` (centres unmarked) [cp, cyclophosphamide] was run?
Answer: 144

Question: And the Micronucleus rate ([1]; Female mice)?
Answer: 28.8* ‰

Question: What about the “Number of micronucleus (in Ge)” value ([1]; Male mice) of the same molecule?
Answer: 164

Question: What about the Micronucleus rate ([1]; Male mice) of the same molecule?
Answer: 32.8* ‰

Question: And the “difference in micronucleus rate from the negative control group” value [1, 3]?
Answer: extremely significant

Question: What about the “difference in incidence of sperm abnormality from the negative control group” value [2, 3] of the same molecule?
Answer: extremely significant

Question: What about the “Number of abnormal sperms (in Ge)” value ([2]; male mice, 40 mg/kg•bw, positive control, 5000 sperms examined) of the same molecule?
Answer: 517

Question: What about the “Rate of sperm abnormality” value ([2]; male mice, 40 mg/kg•bw, positive control, P<0.01 vs negative control) of the same molecule?
Answer: 10.34* %
